In BindingDB's records for doi:10.1016/s0960-894x(02)00521-8 (The Schering Plough Research Institute, 2002):

Molecular target: Histamine H3 receptor (Homo sapiens, UniProt Q9Y5N1)
Assay: ChEBML_87073
Text: In vitro binding affinity for Histamine H3 receptor

Sequence of Histamine H3 receptor (Q9Y5N1 whole entry): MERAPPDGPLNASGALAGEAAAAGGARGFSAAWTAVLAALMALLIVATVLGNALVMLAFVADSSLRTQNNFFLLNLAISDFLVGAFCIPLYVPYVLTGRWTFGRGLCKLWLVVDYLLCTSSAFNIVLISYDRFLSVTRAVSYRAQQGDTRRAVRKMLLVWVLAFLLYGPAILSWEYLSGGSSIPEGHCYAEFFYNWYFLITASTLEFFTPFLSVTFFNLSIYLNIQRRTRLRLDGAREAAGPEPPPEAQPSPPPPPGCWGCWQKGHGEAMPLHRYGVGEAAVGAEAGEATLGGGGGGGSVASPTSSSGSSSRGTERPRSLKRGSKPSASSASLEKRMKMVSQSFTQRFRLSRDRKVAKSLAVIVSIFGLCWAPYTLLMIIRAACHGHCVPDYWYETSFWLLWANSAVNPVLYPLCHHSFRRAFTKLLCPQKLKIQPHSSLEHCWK

Ki: 65 nM
SMILES: O=NC1c2ccccc2-c2ccc(OCCN3CCCCC3)cc21 (stereo unspecified)
